Source: patent US9517988B2 (Sichuan Haisco Pharmaceutical Co., Ltd., priority 2013, dated 2016)
Counter-ions that a name gives are not always drawn.

Assays:
ICR mice [1] = experiment: Righting reflex experiment on mice; details: for ED50: Mus musculus, iv; for Anesthesia induction time / Anesthesia maintenance time: intravenous injection; for Anesthesia induction time: end of administration until loss of righting reflex; for Anesthesia maintenance time: loss until recovery of righting reflex; for SI: safety index, LD5/ED95, mice; for TI: therapeutic index, LD50/ED50, mice; for HD7: dose required to cause a 7-min anesthesia
Procedure: (§1) LD5 (5% lethal dose): dose required to cause 5% of mice to die in a test.
(§2) If a normal animal was able to immediately turn its body to normal upright position after being pushed over or made lying on its back, such a reflex was determined as the righting reflex. Otherwise, loss of the righting reflex and the time of loss were recorded, and a reflex recovery time was recorded when the animal restored the righting reflex. The period from finishing of drug administration until loss of the righting reflex was recorded as the anesthesia induction time, and the period from loss of the righting reflex until recovery of the righting reflex was recorded as the anesthesia maintenance time.
(§3) TI (therapeutic index, i.e. LD50/ED50), SI (safety index, i.e. LD5/ED95).
(§4) MTD (maximum tolerated dose): the maximum dose able to cause 100% to loss the righting index without death.
(§5) Indicators such as median effective dose (ED50), median lethal dose (LD50), therapeutic index (TI, i.e. LD50/ED50), safety index (SI, i.e. LD5/ED95), anesthesia induction time, anesthesia maintenance time, and maximum tolerated dose (MTD) were used to evaluate the effect and safety of anesthesia. […] After adapting to the laboratory environment, laboratory animals were fasted for 12 hours. On the next day, administration was carried out at 10 mg/kg body weight. Upon intravenous injection, the time of loss of the righting reflex was recorded. The period from finishing of drug administration until loss of the righting reflex was recorded as the anesthesia induction time, and the period from loss of the righting reflex until recovery of the righting reflex was recorded as the anesthesia maintenance time. The anesthesia induction time and the anesthesia maintenance time were used to indicate how strong an anesthetic effect was. Meanwhile, the dose required to cause a 7-min anesthesia (HD7) was measured and used to evaluate relative efficacy.

[2] = Righting reflex experiment on mice; details: both, ICR, mouse, in vivo; for LD50: iv; for MTD: intravenous
Procedure: as §1, §2, §3, §4, §5

ICR mice [3] = experiment: Righting reflex experiment on mice with prodrugs; assay type: in vivo; details: for ED50: Mus musculus; for SI: safety index, LD5/ED95, mice; for TI: therapeutic index, LD50/ED50, mice
Procedure: (§6) After adapting to the laboratory environment, the SPF-grade ICR mice were fasted for 12 hours.

[4] = Righting reflex experiment on mice with prodrugs; assay type: in vivo; details: ICR, mouse, in vivo, mice; for LD50: intravenous injection, prodrugs in physiological saline; for MTD: prodrugs
Procedure: as §6

[5] = mice, intravenous injection, prodrugs
[6] = mice, intravenous injection, prodrugs formulated with physiological saline, read-out: ED50

SMILES | Anesthesia induction time (ICR mice [3]; [5]) | Anesthesia maintenance time (ICR mice [3]; [5]) | SI (ICR mice [3]; prodrugs) | TI (ICR mice [3]; prodrugs) | LD50 ([4]; both sexes) | ED50 (ICR mice [3]; [6]) | MTD ([4]; both sexes, intravenous) | also measured
C[C@H](c1cccc([C@@H](C)C2CC2)c1O)C1CC1 [Compound 20, 2,6-bis[(1S)-1-cyclopropylethyl]phenol] | – | – | – | – | – | – | – | ED50 (ICR mice [1]): 15.7 mg/kg; Anesthesia induction time (ICR mice [1]; mice): <15.0 s; Anesthesia maintenance time (ICR mice [1]; mice): 1207.7 s; MTD (ICR mice [1]; mice, maximum dose causing 100% loss of righting reflex without death): 90.0 mg/kg; SI (ICR mice [1]): 4.4; TI (ICR mice [1]): 9.6; LD50 [2]: 150 mg/kg
CC(C)c1cccc([C@H](C)C2CC2)c1OCOP(=O)(OCOC(=O)C(C)(C)C)OCOC(=O)C(C)(C)C [Compound 35, [[2-[(1R)-1-cyclopropylethyl]-6-isopropyl-phenoxy]methoxy-(2,2-dimethylpropanoyloxymethoxy)phosphoryl]oxymethyl 2,2-dimethylpropanoate] | <15.0 s | 1915.5 s | 4.9 | 5.1 | 200 mg/kg | – | – | ED50 (ICR mice [3]; iv): 39.3 mg/kg; MTD ([4]; both sexes): 200 mg/kg
CC(C)c1cccc([C@H](C)C2CC2)c1OCOC(=O)c1cccnc1 [Compound 51, [2-[(1R)-1-cyclopropylethyl]-6-isopropyl-phenoxy]methylpyridine-3-carboxylate] | 159.0 s | 1159.9 s | 1.2 | 2.8 | 80 mg/kg | 28.3 mg/kg | 40 mg/kg | –
C[C@H](c1cccc([C@H](C)C2CC2)c1O)C1CC1 [Compound 19, 2-[(1S)-1-cyclopropylethyl]-6-[(1R)-1-cyclopropylethyl]phenol] | – | – | – | – | – | – | – | ED50 (ICR mice [1]): 1.5 mg/kg; Anesthesia induction time (ICR mice [1]; mice): <15.0 s; Anesthesia maintenance time (ICR mice [1]; mice): 754.4 s; SI (ICR mice [1]): 3.8; TI (ICR mice [1]): 4.1; MTD [2]: 5 mg/kg; LD50 [2]: 6.3 mg/kg
CC(C)c1cccc(C(C2CC2)C2CC2)c1O [Compound 11, 2-(dicyclopropylmethyl)-6-isopropyl-phenol] | – | – | – | – | – | – | – | ED50 (ICR mice [1]): 30.1 mg/kg; Anesthesia induction time (ICR mice [1]; mice): <15.0 s; Anesthesia maintenance time (ICR mice [1]; mice): 1494.7 s; SI (ICR mice [1]): 2.5; TI (ICR mice [1]): 3.3; MTD [2]: 80 mg/kg; LD50 [2]: 100 mg/kg
CC(C)C[C@H](N)C(=O)OCOc1c(C(C)C)cccc1[C@H](C)C1CC1 [Compound 60, [2-[(1R)-1-cyclopropylethyl]-6-isopropyl-phenoxy]methyl(2S)-2-amino-4-methyl-pentanoate trifluoroacetate] | 6.0 s | 1473.0 s | 3.1 | 5.8 | 79.6 mg/kg | 13.8 mg/kg | 50 mg/kg | –
CC(C)c1cccc([C@H](C)C2CC2)c1OCOC(=O)C(NC(=O)OC(C)(C)C)C(C)C (stereo in doubt) [Compound 57, [2-[(1R)-1-cyclopropylethyl]-6-isopropyl-phenoxy]methyl(2R)-2-(tertbutoxycarbonylamino)-3-methyl-butanoate] | 135.8 s | 1931.2 s | 1.3 | 3.3 | 120 mg/kg | 36.7 mg/kg | 80 mg/kg | –
CC(C)c1cccc([C@@H](C)C2CC2)c1OCOP(=O)([O-])[O-].[Na+].[Na+] [Compound 65] | 82.5 s | 3278.0 s | 2.9 | 4.5 | 370 mg/kg | 82.7 mg/kg | 200 mg/kg | –
CC(C)c1cccc([C@H](C)C2CCC2)c1OCOP(=O)([O-])[O-].[Na+].[Na+] [Compound 74] | 96.5 s | 2378.3 s | 2.5 | 4.0 | – | 48.3 mg/kg | – | MTD ([4]; both, intravenous): 120 mg/kg; LD50 ([4]; both): 192 mg/kg
C[C@@H](c1cccc([C@H](C)C2CC2)c1O)C1CC1 [Compound 18, 2,6-bis[(1R)-1-cyclopropylethyl]phenol] | – | – | – | – | – | – | – | ED50 (ICR mice [1]): 5.8 mg/kg; Anesthesia induction time (ICR mice [1]; mice): <15.0 s; Anesthesia maintenance time (ICR mice [1]; mice): 1031.6 s; HD7 (ICR mice [1]; mice): 2.5 mg/kg; SI (ICR mice [1]): 3.5; TI (ICR mice [1]): 7.5; MTD [2]: 20 mg/kg; LD50 [2]: 43.6 mg/kg
CC(C)c1cccc([C@H](C)C2CC2)c1OCOP(=O)([O-])[O-].[K+].[K+] [Compound 45] | – | – | – | – | – | – | – | MTD ([4]; both, intravenous): 50 mg/kg; LD50 ([4]; both): 72.6 mg/kg
CCC(C)c1cccc(C(C)C2CC2)c1O (centres unmarked) [Compound 4, 2-sec-butyl-6-(1-cyclopropylethyl)phenol] | – | – | – | – | – | – | – | ED50 (ICR mice [1]): 4.5 mg/kg; Anesthesia induction time (ICR mice [1]; mice): <15.0 s; Anesthesia maintenance time (ICR mice [1]; mice): 901.7 s; HD7 (ICR mice [1]; mice): 4.0 mg/kg; SI (ICR mice [1]): 2.6; TI (ICR mice [1]): 8.4; MTD [2]: 25 mg/kg; LD50 [2]: 38.1 mg/kg
CC[C@@H](C)c1cccc([C@H](C)C2CC2)c1OCOP(=O)([O-])[O-].[Na+].[Na+] [Compound 78] | 65.2 s | 2634.6 s | 2.9 | 4.0 | – | 15.9 mg/kg | – | MTD ([4]; both, intravenous): 40 mg/kg; LD50 ([4]; both): 63.7 mg/kg
CC(C)c1cccc([C@H](C)C2CC2)c1OCOC(=O)[C@@H](N)Cc1ccccc1 [Compound 62, [2-[(1R)-1-cyclopropylethyl]-6-isopropyl-phenoxy]methyl(2S)-2-amino-3-phenylpropanoate trifluoroacetate] | <15.0 s | 696.9 s | 1.6 | 5.9 | 45.6 mg/kg | 7.7 mg/kg | 30 mg/kg | ED50 and efficacy compared with propofol (ICR mice [3]; mice, prodrugs): smaller ED50 value and higher efficacy than propofol
C[C@@H](c1cccc([C@H](C)C2CC2)c1OCOP(=O)(O)O)C1CC1 [Compound 75, sodium (2,6-bis((R)-1-cyclopropylethyl)phenoxy)methyl phosphate] | 129.2 s | 2070.4 s | 2.3 | 3.6 | 42.4 mg/kg | 11.7 mg/kg | 30 mg/kg | –
C[C@H](c1cccc([C@H](C)C2CC2)c1OCOP(=O)(O)O)C1CC1 [Compound 76, sodium (2-((R)-1-cyclopropylethyl)-6-((S)-1-cyclopropylethyl)phenoxy)methyl phosphate] | 111.8 s | 1992.8 s | 2.5 | 4.0 | 143 mg/kg | 35.8 mg/kg | 80 mg/kg | –
CC(=O)Oc1ccccc1C(=O)OCOc1c(C(C)C)cccc1[C@H](C)C1CC1 [Compound 38, [2-[(1R)-1-cyclopropylethyl]-6-isopropyl-phenoxy]methyl 2-acetoxybenzoate] | 141.0 s | 478.9 s | 1.3 | 3.1 | 80 mg/kg | 26.1 mg/kg | 50 mg/kg | –
C[C@H](c1cccc([C@@H](C)C2CC2)c1OCOP(=O)(O)O)C1CC1 [Compound 77, sodium (2,6-bis((S)-1-cyclopropylethyl)phenoxy)methyl phosphate] | 175.4 s | 1859.1 s | 1.7 | 2.9 | 274 mg/kg | 94.7 mg/kg | 160 mg/kg | –
CC[C@H](C)c1cccc([C@H](C)C2CC2)c1OCOP(=O)([O-])[O-].[Na+].[Na+] [Compound 79] | 72.5 s | 2252.1 s | 2.1 | 3.8 | – | 24.3 mg/kg | – | MTD ([4]; both, intravenous): 60 mg/kg; LD50 ([4]; both): 91.8 mg/kg
